Structures are written as SMILES.

The target in one experiment is T1, full length AKT E17K (Homo sapiens, UniProt P31749, E17K).
T1 construct: host or cells: HEK-293 (ATCC CRL-1573)
T1 sequence (P31749 whole entry E17K): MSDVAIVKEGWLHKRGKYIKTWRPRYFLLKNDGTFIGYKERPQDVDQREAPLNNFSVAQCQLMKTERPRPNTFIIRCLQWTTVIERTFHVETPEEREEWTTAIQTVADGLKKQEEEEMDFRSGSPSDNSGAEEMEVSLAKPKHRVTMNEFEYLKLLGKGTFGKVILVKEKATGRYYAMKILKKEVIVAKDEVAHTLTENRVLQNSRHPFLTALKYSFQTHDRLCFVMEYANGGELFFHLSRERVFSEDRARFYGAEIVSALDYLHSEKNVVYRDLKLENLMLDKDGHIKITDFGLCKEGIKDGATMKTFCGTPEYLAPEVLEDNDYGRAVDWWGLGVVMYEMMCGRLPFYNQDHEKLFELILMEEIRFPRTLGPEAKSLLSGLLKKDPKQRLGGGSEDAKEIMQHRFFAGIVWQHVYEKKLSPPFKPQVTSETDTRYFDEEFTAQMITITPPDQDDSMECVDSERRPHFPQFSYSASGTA
The experiment is described as follows: NanoBRET Target Engagement (TE) Intracellular Kinase Assay. The experiment is classed as cell-based.
Details: not given
The text has this: The NanoBRET™ Target Engagement (TE) Intracellular Kinase Assays are based on the NanoBRET™ System (Promega Corporation), an energy transfer technique designed to measure molecular proximity in living cells. The NanoBRET™ TE Assays measure the apparent affinity of test compounds by competitive displacement of the NanoBRET™ tracer compound, which is a cell permeable molecule engineered to be reversibly bound to a NanoLuc® luciferase-kinase fusion expressed in cells. For compound screening, when a test compound binds to the selected kinase, the BRET signal is attenuated. […] All cells were evaluated for viability prior to transfection and optimization of the transfection was done prior to experimentation. […] Following transfection, cells were washed and resuspended in Opti-MEM. NanoBRET assays were performed in white, 384-well plates (Corning) at a density of 2×10^5 cells/well. All example compounds were prepared as concentrated stock solutions in DMSO (Sigma-Aldrich). Compounds are dissolved in DMSO to make 10 mM stock solution. […] A Labcyte ECHO 550 compound dispenser was used to facilitate compound transfer directly to cells. Cells were equilibrated for 2 hr with energy transfer probes and example compound prior to BRET measurements. […] For target engagement analysis, the energy transfer probes were added to the cells at concentrations optimized for the target in question (AKT E17K). Following compound incubation, NanoBRET NanoGlo Substrate (Promega Cat #Ni57D) and Extracellular Nanoluc Inhibitor (Promega Cat #N235C) was added according to the manufacturer's recommended protocol, and luminescence was measured on Envision Reader (Perkin Elmer) Multimode Luminometer equipped with 450 nm BPfilter (donor) and 600 nm LPfilter (acceptor), using 0.5 s integration time. Milli-BRET units (mBU) are calculated by multiplying the raw BRET values by 1000. Apparent tracer affinity values (EC50) were determined using the sigmoidal dose-response (variable slope). Competitive displacement data were then plotted and data were fit to determine the EC50 value for each example compound.
In general terms: Bioluminescence resonance energy transfer reports proximity on the nanometre scale.
As usually defined, the EC50 is the concentration giving half of the maximal effect. In turn, `Nc1ncccc1-c1nc2ccc(-c3ccccc3)nc2n1-c1ccc(CN2CCN(c3c(OC4CCCC4)c(=O)c3=O)CC2)cc1` [Example 26, 3-(4-(4-(2-(2-aminopyridin-3-yl)-5-phenyl-3H-imidazo[4,5-b]pyridin-3-yl)benzyl)piperazin-1-yl)-4-(cyclopentyloxy)cyclobut-3-ene-1,2-dione] returned an EC50 above 600 nM.
In turn, `CSc1c(N(C2CC2)C2CCN(Cc3ccc(-n4c(-c5cccnc5N)nc5ccc(-c6ccccc6)nc54)cc3)CC2)c(=O)c1=O` [Example 95, 3-((1-(4-(2-(2-aminopyridin-3-yl)-5-phenyl-3H-imidazo[4,5-b]pyridin-3-yl)benzy1)piperidin-4-yl)(cyclopropyl)amino)-4-(methylthio)cyclobut-3-ene-1,2-dione] came in with a 50% effective concentration (EC50) of 15 to 60 nM.
Still for that read-out and setting: as for `COc1c(Nc2cccc(C(=O)NCc3ccc(-n4c(-c5cccnc5N)nc5ccc(-c6ccccc6)nc54)cc3)c2)c(=O)c1=O` [Example 33, N-(4-(2-(2-aminopyridin-3-yl)-5-phenyl-3H-imidazo[4,5-b]pyridin-3-yl)benzyl)-3-((2-methoxy-3,4-dioxocyclobut-1-en-1-yl)amino)benzamide], the figure is 60 to 600 nM.
Still for that read-out and setting: as for `COc1c(N2CCCC3(CCN(Cc4ccc(-n5c(-c6cccnc6N)nc6ccc(-c7ccccc7)nc65)cc4)C3)C2)c(=O)c1=O` (stereo not shown) [Example 58, 3-(2-(4-(2-(2-Aminopyridin-3-yl)-5-phenyl-3H-imidazo[4,5-b]pyridin-3-yl)benzyl)-2,7-diazaspiro[4.5]decan-7-yl)-4-methoxycyclobut-3-ene-1,2-dione], the figure is 15 to 60 nM; as for `CN(C)c1c(NC2CCN(Cc3ccc(-n4c(-c5cccnc5N)nc5ccc(-c6ccccc6)nc54)cc3)CC2)c(=O)c1=O` [Example 19, 3-((1-(4-(2-(2-Aminopyridin-3-yl)-5-phenyl-3H-imidazo[4,5-b]pyridin-3-yl)benzyl)piperidin-4-yl)amino)-4-(dimethylamino)cyclobut-3-ene-1,2-dione], above 600 nM.
On the same count and under the same terms, as for `COc1c(N2CCC3(CCN(Cc4ccc(-n5c(-c6cccnc6N)nc6ccc(-c7ccccc7)nc65)cc4)CC3)CC2)c(=O)c1=O` [Example 99, 3-(9-(4-(2-(2-aminopyridin-3-yl)-5-phenyl-3H-imidazo[4,5-b]pyridin-3-yl)benzyl)-3,9-diazaspiro[5.5]undecan-3-yl)-4-methoxycyclobut-3-ene-1,2-dione], the figure is 15 to 60 nM; as for `CCOc1c(N2CCN(Cc3ccc(-n4c(-c5cccnc5N)nc5ccc(-c6ccccc6)nc54)cc3)CC2)c(=O)c1=O` [Example 24, 3-(4-(4-(2-(2-Aminopyridin-3-yl)-5-phenyl-3H-imidazo[4,5-b]pyridin-3-yl)benzyl)piperazin-1-yl)-4-ethoxycyclobut-3-ene-1,2-dione], 60 to 600 nM.
With `COc1c(N2C[C@H]3CN(Cc4ccc(-n5c(-c6cccnc6N)nc6ccc(-c7ccccc7)nc65)cc4)C[C@H]3C2)c(=O)c1=O` [Example 86, 3-((3aR,6aS)-5-(4-(2-(2-aminopyridin-3-yl)-5-phenyl-3H-imidazo[4,5-b]pyridin-3-yl)benzyl)hexahydropyrrolo[3,4-c]pyrrol-2(1H)-yl)-4-methoxycyclobut-3-ene-1,2-dione], the concentration for a half-maximal effect (EC50) lay within 15 to 60 nM.
The same measure, in the same setting: under `COc1c(N(C)C2CCN(Cc3ccc(-n4c(-c5cccnc5N)nc5cc(-c6ccccc6)cnc54)cc3)CC2)c(=O)c1=O` [Example 32, 3-((1-(4-(2-(2-Aminopyridin-3-yl)-6-phenyl-3H-imidazo[4,5-b]pyridin-3-yl)benzyl)piperidin-4-yl)(methyl)amino)-4-methoxycyclobut-3-ene-1,2-dione] stands 60 to 600 nM; under `CNc1c(NC2CCN(Cc3ccc(-n4c(-c5cccnc5N)nc5ccc(-c6ccccc6)nc54)cc3)CC2)c(=O)c1=O` [Example 20, 3-((1-(4-(2-(2-Aminopyridin-3-yl)-5-phenyl-3H-imidazo[4,5-b]pyridin-3-yl)benzyl)piperidin-4-yl)amino)-4-(methylamino)cyclobut-3-ene-1,2-dione], 60 to 600 nM.
The same measure, in the same setting: under `COc1c(N2CCCC3(CN(Cc4ccc(-n5c(-c6cccnc6N)nc6ccc(-c7ccccc7)nc65)cc4)C3)C2)c(=O)c1=O` [Example 65, 3-(2-(4-(2-(2-aminopyridin-3-yl)-5-phenyl-3H-imidazo[4,5-b]pyridin-3-yl)benzyl)-2,6-diazaspiro[3.5]nonan-6-yl)-4-methoxycyclobut-3-ene-1,2-dione] stands 60 to 600 nM.
Still for that read-out and setting: under `COc1c(NC2CCC3(CC2)CCN(Cc2ccc(-n4c(-c5cccnc5N)nc5ccc(-c6ccccc6)nc54)cc2)C3)c(=O)c1=O` (stereo not shown) [Example 52, 3-((2-(4-(2-(2-Aminopyridin-3-yl)-5-phenyl-3H-imidazo[4,5-b]pyridin-3-yl)benzyl)-2-azaspiro[4.5]decan-8-yl)amino)-4-methoxycyclobut-3-ene-1,2-dione] stands 15 to 60 nM; under `COc1c(N2CCN(Cc3ccc(-n4c(-c5cccnc5N)nc5ccc(-c6ccccc6)nc54)cc3)CC2)c(=O)c1=O` [Example 21, 3-(4-(4-(2-(2-Aminopyridin-3-yl)-5-phenyl-3H-imidazo[4,5-b]pyridin-3-yl)benzyl)piperazin-1-yl)-4-methoxycyclobut-3-ene-1,2-dione], 15 to 60 nM.

The experiment is the same for the next values; noted with them: read-out: NanoBRET AKT1E17K EC50; HEK-293 cells transfected with NanoLuc-AKT E17K; competitive displacement of NanoBRET tracer; 2 hr equilibration; 10-point 3-fold dilution.
As for `COc1c(N(C2CC2)C2CCN(Cc3ccc(-n4c(-c5cccnc5N)nc5ccc(-c6ccccc6)nc54)cc3)CC2)c(=O)c1=O` [Example 94, 3-((1-(4-(2-(2-aminopyridin-3-yl)-5-phenyl-3H-imidazo[4,5-b]pyridin-3-yl)benzyl)piperidin-4-yl)(cyclopropyl)amino)-4-methoxycyclobut-3-ene-1,2-dione], the half-maximal effective concentration (EC50) is below 15 nM.
Still for that read-out and setting: under `CSc1c(N(C)C2CCN(Cc3ccc(-n4c(-c5cccnc5N)nc5ccc(-c6ccccc6)nc54)cc3)CC2)c(=O)c1=O` [Example 47, 3-((1-(4-(2-(2-aminopyridin-3-yl)-5-phenyl-3H-imidazo[4,5-b]pyridin-3-yl)benzyl)piperidin-4-yl)(methyl)amino)-4-(methylthio)cyclobut-3-ene-1,2-dione] stands below 15 nM.
As to `COc1c(N(C)C2CCN(Cc3ccc(-n4c(-c5cccnc5N)nc5ccc(-c6ccccc6)nc54)cc3)CC2)c(=O)c1=O` [Example 27, 3-((1-(4-(2-(2-aminopyridin-3-yl)-5-phenyl-3H-imidazo[4,5-b]pyridin-3-yl)benzyl)piperidin-4-yl)(methyl)amino)-4-methoxycyclobut-3-ene-1,2-dione], the EC50 is below 15 nM.
The same measure, in the same setting: as for `COc1c(N[C@H]2CCN(Cc3ccc(-n4c(-c5cccnc5N)nc5ccc(-c6ccccc6)nc54)cc3)C2)c(=O)c1=O` [Example 30, (S)-3-((1-(4-(2-(2-Aminopyridin-3-yl)-5-phenyl-3H-imidazo[4,5-b]pyridin-3-yl)benzyl)pyrrolidin-3-yl)amino)-4-methoxycyclobut-3-ene-1,2-dione], the figure is below 15 nM.
On to `COc1c(NC2CCN(Cc3ccc(-n4c(-c5cccnc5N)nc5ccc(-c6ccccc6)nc54)cc3)CC2)c(=O)c1=O` [Example 17, 3-((1-(4-(2-(2-Aminopyridin-3-yl)-5-phenyl-3H-imidazo[4,5-b]pyridin-3-yl)benzyl)piperidin-4-yl)amino)-4-methoxycyclobut-3-ene-1,2-dione], for which the half-maximal effective concentration (EC50) was below 15 nM.
As to `COc1c(N2CCC3(CC2)CN(Cc2ccc(-n4c(-c5cccnc5N)nc5ccc(-c6ccccc6)nc54)cc2)C3)c(=O)c1=O` [Example 60, 3-(2-(4-(2-(2-Aminopyridin-3-yl)-5-phenyl-3H-imidazo[4,5-b]pyridin-3-yl)benzyl)-2,7-diazaspiro[3.5]nonan-7-yl)-4-methoxycyclobut-3-ene-1,2-dione], the concentration giving a half-maximal response (EC50) was below 15 nM.
Still for that read-out and setting: under `COc1c(N2C[C@@H]3C[C@H]2CN3Cc2ccc(-n3c(-c4cccnc4N)nc4ccc(-c5ccccc5)nc43)cc2)c(=O)c1=O` [Example 75, 3-((1S,4S)-5-(4-(2-(2-aminopyridin-3-yl)-5-phenyl-3H-imidazo[4,5-b]pyridin-3-yl)benzyl)-2,5-diazabicyclo[2.2.1]heptan-2-y1)-4-methoxycyclobut-3-ene-1,2-dione] stands below 15 nM.
The same measure, in the same setting: under `[2H]C([2H])([2H])Oc1c(NC2CCN(Cc3ccc(-n4c(-c5cccnc5N)nc5ccc(-c6ccccc6)nc54)cc3)CC2)c(=O)c1=O` [Example 13, 3-((1-(4-(2-(2-Aminopyridin-3-yl)-5-phenyl-3H-imidazo[4,5-b]pyridin-3-yl)benzyl)piperidin-4-yl)amino)-4-(methoxy-d3)cyclobut-3-ene-1,2-dione] stands below 15 nM.
On the same count and under the same terms, under `COc1c(N2CC[C@]3(CCN(Cc4ccc(-n5c(-c6cccnc6N)nc6ccc(-c7ccccc7)nc65)cc4)C3)C2)c(=O)c1=O` [Example 66, (S)-3-(7-(4-(2-(2-aminopyridin-3-yl)-5-phenyl-3H-imidazo[4,5-b]pyridin-3-yl)benzyl)-2,7-diazaspiro[4.4]nonan-2-yl)-4-methoxycyclobut-3-ene-1,2-dione] stands below 15 nM.

Values taken from US20260365646A1, “AKT1 MODULATORS” (Alterome Therapeutics, Inc., priority 2022, published 2026).
